# Experimental data as given in PubChem BioAssay AID1963827 (Molecular Pharmacology Branch, DTP, NCI, 2024).
# Test system: 994946-033-R-J1-PDC complex spheroid viability
# Assay: Anticancer human tumor 994946-033-R-J1-PDC patient-derived melanoma cell line growth inhibition [POLQ]
# Conditions: for IC50: curve of first compound; for viability, T/C: stronger effect = lower value
# In short: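 Patient-derived tumour cells were co-cultured with HUVEC and mesenchymal stem cells as multicellular spheroids at 37 °C. They were treated with POLQ inhibitors (novobiocin, ART-558, RP6685) alone or combined with other agents. Top concentrations were at or near clinical Cmax (otherwise 10 microM; SN-38 at 1 microM), decreasing in half-log steps.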
# [1] = second compound 0.0316 µM, first compound 0.0316 µM
# [2] = second compound 0.0316 µM, first compound 0.1 µM
# [3] = second compound 0.0316 µM, first compound 0.316 µM
# [4] = second compound 0.0316 µM, first compound 1 µM
# [5] = second compound 0.0316 µM, first compound 3.16 µM
# [6] = second compound 0.0316 µM, first compound 10 µM
# [7] = second compound 0.1 µM, first compound 0.0316 µM
# [8] = second compound 0.1 µM, first compound 0.1 µM
# [9] = second compound 0.1 µM, first compound 0.316 µM
# [10] = second compound 0.1 µM, first compound 1 µM
# [11] = second compound 0.1 µM, first compound 3.16 µM
# [12] = second compound 0.1 µM, first compound 10 µM
# [13] = second compound 0.316 µM, first compound 0.0316 µM
# [14] = second compound 0.316 µM, first compound 0.1 µM
# [15] = second compound 0.316 µM, first compound 0.316 µM
# [16] = second compound 0.316 µM, first compound 1 µM
# [17] = second compound 0.316 µM, first compound 3.16 µM
# [18] = second compound 0.316 µM, first compound 10 µM
# [19] = second compound 1 µM, first compound 0.0316 µM
# [20] = second compound 1 µM, first compound 0.1 µM
# [21] = second compound 1 µM, first compound 0.316 µM
# [22] = second compound 1 µM, first compound 1 µM
# [23] = second compound 1 µM, first compound 3.16 µM
# [24] = second compound 1 µM, first compound 10 µM
# [25] = second compound 3.16 µM, first compound 0.0316 µM
# [26] = second compound 3.16 µM, first compound 0.1 µM
# [27] = second compound 3.16 µM, first compound 0.316 µM
# [28] = second compound 3.16 µM, first compound 1 µM
# [29] = second compound 3.16 µM, first compound 3.16 µM
# [30] = second compound 3.16 µM, first compound 10 µM
# [31] = second compound 10 µM, first compound 0.0316 µM
# [32] = second compound 10 µM, first compound 0.1 µM
# [33] = second compound 10 µM, first compound 0.316 µM
# [34] = second compound 10 µM, first compound 1 µM
# [35] = second compound 10 µM, first compound 3.16 µM
# [36] = second compound 10 µM, first compound 10 µM
# 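Also: spheroids exposed to drugs for 7 days.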
# 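For viability, T/C in this document: 100% = DMSO vehicle treated spheroids.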
smiles,measurement,setting,value
CC(=O)O[C@H]1C(=O)[C@@]2(C)[C@H]([C@H](OC(=O)c3ccccc3)[C@]3(O)C[C@H](OC(=O)[C@H](O)[C@@H](NC(=O)c4ccccc4)c4ccccc4)C(C)=C1C3(C)C)[C@]1(OC(C)=O)CO[C@@H]1C[C@@H]2O + Cc1cccc(N(C)C(=O)C2C(O)CCN2c2nc(C)cc(C(F)(F)F)c2C#N)c1,IC50,second compound 0.0316 µM,< 0.00949 µM
same,IC50,second compound 0.1 µM,< 0.00949 µM
same,IC50,second compound 0.316 µM,< 0.00949 µM
same,IC50,second compound 1 µM,< 0.00949 µM
same,IC50,second compound 3.16 µM,< 0.00949 µM
same,IC50,second compound 10 µM,< 0.00949 µM
same,"viability, T/C","second compound 0.0316 µM, first compound 0.00949 µM",19.5%
same,"viability, T/C","second compound 0.0316 µM, first compound 0.03 µM",19.7%
same,"viability, T/C","second compound 0.0316 µM, first compound 0.0949 µM",20.6%
same,"viability, T/C","second compound 0.0316 µM, first compound 0.3 µM",13.5%
same,"viability, T/C","second compound 0.0316 µM, first compound 0.949 µM",9.96%
same,"viability, T/C","second compound 0.0316 µM, first compound 3 µM",8.94%
same,"viability, T/C","second compound 0.1 µM, first compound 0.00949 µM",22.4%
same,"viability, T/C","second compound 0.1 µM, first compound 0.03 µM",20.6%
same,"viability, T/C","second compound 0.1 µM, first compound 0.0949 µM",16.8%
same,"viability, T/C","second compound 0.1 µM, first compound 0.3 µM",16.8%
same,"viability, T/C","second compound 0.1 µM, first compound 0.949 µM",10.6%
same,"viability, T/C","second compound 0.1 µM, first compound 3 µM",12.3%
same,"viability, T/C","second compound 0.316 µM, first compound 0.00949 µM",16.1%
same,"viability, T/C","second compound 0.316 µM, first compound 0.03 µM",31.9%
same,"viability, T/C","second compound 0.316 µM, first compound 0.0949 µM",16.3%
same,"viability, T/C","second compound 0.316 µM, first compound 0.3 µM",15.3%
same,"viability, T/C","second compound 0.316 µM, first compound 0.949 µM",14.7%
same,"viability, T/C","second compound 0.316 µM, first compound 3 µM",14.6%
same,"viability, T/C","second compound 1 µM, first compound 0.00949 µM",23.4%
same,"viability, T/C","second compound 1 µM, first compound 0.03 µM",21.8%
same,"viability, T/C","second compound 1 µM, first compound 0.0949 µM",18.9%
same,"viability, T/C","second compound 1 µM, first compound 0.3 µM",19.6%
same,"viability, T/C","second compound 1 µM, first compound 0.949 µM",12.4%
same,"viability, T/C","second compound 1 µM, first compound 3 µM",12.7%
same,"viability, T/C","second compound 3.16 µM, first compound 0.00949 µM",23%
same,"viability, T/C","second compound 3.16 µM, first compound 0.03 µM",24.2%
same,"viability, T/C","second compound 3.16 µM, first compound 0.0949 µM",20.3%
same,"viability, T/C","second compound 3.16 µM, first compound 0.3 µM",17.3%
same,"viability, T/C","second compound 3.16 µM, first compound 0.949 µM",14.5%
same,"viability, T/C","second compound 3.16 µM, first compound 3 µM",12.9%
same,"viability, T/C","second compound 10 µM, first compound 0.00949 µM",21.6%
same,"viability, T/C","second compound 10 µM, first compound 0.03 µM",26.2%
same,"viability, T/C","second compound 10 µM, first compound 0.0949 µM",23.9%
same,"viability, T/C","second compound 10 µM, first compound 0.3 µM",18.5%
same,"viability, T/C","second compound 10 µM, first compound 0.949 µM",15%
same,"viability, T/C","second compound 10 µM, first compound 3 µM",15.7%
CC1COCCN1c1cc(C2(S(C)(=N)=O)CC2)nc(-c2ccnc3[nH]ccc23)n1 (stereo unspecified) + COC1C(OC(N)=O)C(O)C(Oc2ccc3c(O)c(NC(=O)c4ccc(O)c(CC=C(C)C)c4)c(=O)oc3c2C)OC1(C)C,IC50,second compound 0.0316 µM,4.13 µM
same,IC50,second compound 0.1 µM,1.39 µM
same,IC50,second compound 0.316 µM,4.03 µM
same,IC50,second compound 1 µM,8.12 µM
same,IC50,second compound 3.16 µM,> 10 µM
same,IC50,second compound 10 µM,3.19 µM
same,"viability, T/C",[1],134%
same,"viability, T/C",[2],95.5%
same,"viability, T/C",[3],99.4%
same,"viability, T/C",[4],45.6%
same,"viability, T/C",[5],61.9%
same,"viability, T/C",[6],41.1%
same,"viability, T/C",[7],113%
same,"viability, T/C",[8],101%
same,"viability, T/C",[9],68.2%
same,"viability, T/C",[10],65.3%
same,"viability, T/C",[11],29.2%
same,"viability, T/C",[12],36.1%
same,"viability, T/C",[13],78.1%
same,"viability, T/C",[14],116%
same,"viability, T/C",[15],92.4%
same,"viability, T/C",[16],63.9%
same,"viability, T/C",[17],61.5%
same,"viability, T/C",[18],34.1%
same,"viability, T/C",[19],138%
same,"viability, T/C",[20],105%
same,"viability, T/C",[21],80.8%
same,"viability, T/C",[22],68.9%
same,"viability, T/C",[23],52.9%
same,"viability, T/C",[24],49.6%
same,"viability, T/C",[25],101%
same,"viability, T/C",[26],90.5%
same,"viability, T/C",[27],80.5%
same,"viability, T/C",[28],75%
same,"viability, T/C",[29],54.6%
same,"viability, T/C",[30],57.9%
same,"viability, T/C",[31],103%
same,"viability, T/C",[32],85.4%
same,"viability, T/C",[33],99%
same,"viability, T/C",[34],102%
same,"viability, T/C",[35],50%
same,"viability, T/C",[36],37%
CCCS(=O)(=O)Nc1ccc(F)c(C(=O)c2c[nH]c3ncc(-c4ccc(Cl)cc4)cc23)c1F + COC1C(OC(N)=O)C(O)C(Oc2ccc3c(O)c(NC(=O)c4ccc(O)c(CC=C(C)C)c4)c(=O)oc3c2C)OC1(C)C,IC50,second compound 0.0316 µM,6.68 µM
same,IC50,second compound 0.1 µM,5.99 µM
same,IC50,second compound 0.316 µM,5.14 µM
same,IC50,second compound 1 µM,6.12 µM
same,IC50,second compound 3.16 µM,4.85 µM
same,IC50,second compound 10 µM,6.15 µM
same,"viability, T/C",[1],128%
same,"viability, T/C",[2],113%
same,"viability, T/C",[3],99.6%
same,"viability, T/C",[4],93.4%
same,"viability, T/C",[5],109%
same,"viability, T/C",[6],18.3%
same,"viability, T/C",[7],102%
same,"viability, T/C",[8],98.7%
same,"viability, T/C",[9],89.3%
same,"viability, T/C",[10],105%
same,"viability, T/C",[11],106%
same,"viability, T/C",[12],9.61%
same,"viability, T/C",[13],104%
same,"viability, T/C",[14],101%
same,"viability, T/C",[15],97.3%
same,"viability, T/C",[16],121%
same,"viability, T/C",[17],75.3%
same,"viability, T/C",[18],15.4%
same,"viability, T/C",[19],90.5%
same,"viability, T/C",[20],93.4%
same,"viability, T/C",[21],90.4%
same,"viability, T/C",[22],108%
same,"viability, T/C",[23],91.3%
same,"viability, T/C",[24],19.2%
same,"viability, T/C",[25],113%
same,"viability, T/C",[26],111%
same,"viability, T/C",[27],104%
same,"viability, T/C",[28],93.8%
same,"viability, T/C",[29],67.5%
same,"viability, T/C",[30],20.2%
same,"viability, T/C",[31],102%
same,"viability, T/C",[32],107%
same,"viability, T/C",[33],112%
same,"viability, T/C",[34],94.2%
same,"viability, T/C",[35],99.9%
same,"viability, T/C",[36],13.5%
